Reference: patent US9994556B2, “Triazole modified coumarin and biphenyl amide-based HSP90 inhibitors” (THE UNIVERSITY OF KANSAS, priority 2014, dated 2018)
Where two headings read alike, the source gives them in different places.

What was measured:
Assay type in all cases: cell-based
[1] = test system: SKBr3 cells; test: MTS/PMS cell viability assay, SKBr3; settings: Homo sapiens, SK-BR-3
Experimental: (§1) a) MTS/PMS Cell Viability Assay (SKBr3 and MCF-7 Cells)
(§2) Cells were maintained in a 1:1 mixture of Advanced DMEM/F12 (Gibco) supplemented with non-essential amino acids, L-glutamine (2 mM), streptomycin (500 μg/mL), penicillin (100 units/mL), and 10% FBS. Cells were grown to confluence in a humidified atmosphere (37° C., 5% CO2), seeded (2000/well, 100 μL) in 96-well plates, and allowed to attach overnight. Compound at varying concentrations in DMSO (1% DMSO final concentration) was added, and cells were returned to the incubator for 72 hr. At 72 hr, the number of viable cells was determined using an MTS/PMS cell proliferation kit (Promega) per the manufacturer's instructions. Cells incubated in 1% DMSO were used at 100% proliferation, and values were adjusted accordingly. IC50 values were calculated from separate experiments performed in triplicate using GraphPad Prism.

[2] = test system: MCF-7 cells; test: MTS/PMS cell viability assay, MCF-7; settings: Homo sapiens, MCF7, 72 hr, mean ± standard deviation, read-out: IC50 MCF-7
Experimental: as §1, §2

[3] = test system: MDA-MB-468LN cell line; test: Promega CellTiter-Glo (CTG) luminescent assay, MDA-MB-468LN; settings: Homo sapiens, 72 hr, mean ± standard deviation
Experimental: (§3) b) Promega CellTiter-Glo (CTG) Luminescent Assay
(§4) Antiproliferative activities against MDA-MB-468LN, MDA1986 and JMAR cell lines were performed with 384-well white plates with the Promega CellTiter-Glo (CTG) luminescent assay with 72 hr compound treatment. Data analysis was performed using GraphPad Prism. Selected data were further checked with MTS/PMS cell viability assay with 96-well plates, which correlated well with Promega CellTiter-Glo luminescent assay.

[4] = test system: MDA1986 cell line; test: Promega CellTiter-Glo (CTG) luminescent assay, MDA1986
Experimental: as §3, §4

[5] = test system: JMAR cell line; test: Promega CellTiter-Glo (CTG) luminescent assay, JMAR; settings: 72 hr, mean ± standard deviation
Experimental: as §3, §4

[6] = test system: PC3-MM2 cells; test: Sulforhodamine B assay, PC3-MM2; settings: Homo sapiens, PC3MM2, mean ± standard deviation
Experimental: (§5) c) Sulforhodamine B Assay
(§6) The sulforhodamine B assay is used to measure drug-induced cytotoxicity and cell proliferation for large-scale drug-screening applications. Its principle is based on the ability of the protein dye sulforhodamine B to bind electrostatically on pH dependent protein basic amino acid residues of trichloroacetic acid-fixed cells. The aim is to evaluate samples showing selective growth inhibition or cell killing of particular tumor cell lines.
(§7) The SRB assay is performed by treating cells using a 10 point dose-response curve. The cells are fixed with trichloroacetic acid solution and stained with sulforhodamine B dye. The stained cells are then solubilized with 10 mM Tris buffer and read for absorbance at 565 nm.
(§8) Percentage growth is calculated at each of the drug concentration levels using the absorbance raw data.
(§9) Percentage growth inhibition is calculated as: [(Ti−Tz)/(C−Tz)]×100 for concentrations for which Ti≥Tz. [(Ti−Tz)/(Tz)]×100 for concentrations for which Ti<Tz.
(§10) Ti=Absorbance of wells at a given drug concentration level.
(§11) Tz=Absorbance time zero wells
(§12) C=Absorbance of untreated wells (media and cells only)
(§13) After growth inhibition values have been calculated, the data is plotted on Graphpad Prism software. Data is entered and plotted on a sigmoidal dose-response curve using non-linear regression.

[7] = test system: LNCaP cells; test: Sulforhodamine B assay, LNCaP; settings: Homo sapiens, mean ± standard deviation
Experimental: as §5, §6, §7, §8, §9, §10, §11, §12, §13

[8] = Table 2 biphenyl triazole analogues, 72 hr, mean ± standard deviation, read-out: IC50 SKBr3
[9] = Table 2 biphenyl triazole analogues
[10] = Table 2 biphenyl triazole analogues, 72 hr, mean ± standard deviation, read-out: IC50 MDA1986
[11] = Table 1 coumarin-based triazoles, 72 hr, mean ± standard deviation, at least two experiments in triplicate, read-out: IC50 SKBr3
[12] = Table 1 coumarin-based triazoles
[13] = Table 1 coumarin-based triazoles, 72 hr, mean ± standard deviation, read-out: IC50 MDA1986

SMILES	IC50 [1, 8] [nM]	IC50 [2, 9] [nM]	IC50 [3, 9] [nM]	IC50 [6, 9] [nM]	IC50 [7, 9] [nM]	IC50 [1, 11] [nM]	IC50 [2, 12] [nM]	IC50 [3, 12] [nM]	IC50 [6, 12] [nM]	IC50 [7, 12] [nM]	IC50 ([1]; read-out: IC50 against SKBr3 cell line) [nM]	IC50 [4, 10] [nM]	IC50 [5, 9] [nM]	IC50 [4, 13] [nM]	IC50 [5, 12] [nM]	IC50 ([4]; read-out: IC50 against MDA1986 cell line) [nM]
CN1CCC(Oc2ccc(-c3ccc(NC(=O)c4cn(Cc5ccc(Cl)cc5)nn4)cc3)cc2)CC1 [5d, 1-(4-Chlorobenzyl)-N-(4′-((1-methylpiperidin-4-yl)oxy)-[1, 1′-biphenyl]-4-yl)-1H-1,2,3-triazole-4-carboxamide]	320 ± 100	440 ± 40	740 ± 190	660 ± 210	1590 ± 780	–	–	–	–	–	–	1300 ± 370	2300 ± 820	–	–	–
CN1CCC(Oc2ccc(-c3ccc(NC(=O)c4cn(CC5CCCCC5)nn4)cc3)cc2)CC1 [5o, 1-(Cyclohexylmethyl)-N-(4′-((1-methylpiperidin-4-yl)oxy)-[1,1′-biphenyl]-4-yl)-1H-1,2,3-triazole-4-carboxamide]	200 ± 20	310 ± 40	240 ± 60	5120 ± 6540	480 ± 680	–	–	–	–	–	–	380 ± 140	260 ± 450	–	–	–
CN1CCC(Oc2ccc(-c3ccc(NC(=O)c4cn(Cc5ccccc5Cl)nn4)cc3)cc2)CC1 [5m, 1-(2-Chlorobenzyl)-N-(4′-((1-methylpiperidin-4-yl)oxy)-[1,1′-biphenyl]-4-yl)-1H-1,2,3-triazole-4-carboxamide]	340 ± 40	380 ± 30	220 ± 30	1040 ± 510	610 ± 340	–	–	–	–	–	–	810 ± 50	650	–	–	–
CN1CCC(Oc2ccc(-c3ccc(NC(=O)c4cn(Cc5ccc(Br)cc5)nn4)cc3)cc2)CC1 [5e, 1-(4-Bromobenzyl)-N-(4′-((1-methylpiperidin-4-yl)oxy)-[1,1′-biphenyl]-4-yl)-1H-1,2,3-triazole-4-carboxamide]	490 ± 30	560 ± 40	2800 ± 610	19900 ± 27900	540 ± 120	–	–	–	–	–	–	3100 ± 870	7800	–	–	–
Cc1c(OC2CCN(C)CC2)ccc2cc(NC(=O)c3cn(-c4ccc(Cl)cc4)nn3)c(=O)oc12 [4c, 1-(4-chlorophenyl)-N-(8-methyl-7-((1-methylpiperidin-4-yl)oxy)-2-oxo-2H-chromen-3-yl)-1H-1,2,3-triazole-4-carboxamide]	–	–	–	–	–	580 ± 30	2040 ± 250	810 ± 150	2790 ± 490	2450 ± 470	–	–	–	180 ± 110	430 ± 380	–
Cc1c(OC2CCN(C)CC2)ccc2cc(NC(=O)c3cn(CCc4ccccc4)nn3)c(=O)oc12 [4r, N-(8-methyl-7-((1-methylpiperidin-4-yl)oxy)-2-oxo-2H-chromen-3-yl)-1-phenethyl-1H-1,2,3-triazole-4-carboxamide]	–	–	–	–	–	130 ± 10	550 ± 10	990 ± 100	1400 ± 40	2360 ± 530	130	–	–	110 ± 300	740 ± 860	~110
Cc1c(OC2CCN(C)CC2)ccc2cc(NC(=O)c3cn(-c4ccc(Br)cc4)nn3)c(=O)oc12 [4d, 1-(4-Bromophenyl)-N-(8-methyl-7-((1-methylpiperidin-4-yl)oxy)-2-oxo-2H-chromen-3-yl)-1H-1,2,3-triazole-4-carboxamide]	–	–	–	–	–	1380 ± 50	5070 ± 1860	2800 ± 500	3810 ± 4990	15200 ± 9190	–	–	–	2900 ± 330	3600 ± 630	–
CN1CCC(Oc2ccc(-c3ccc(NC(=O)c4cn(Cc5cccc(Cl)c5)nn4)cc3)cc2)CC1 [5k, 1-(3-Chlorobenzyl)-N-(4′-((1-methylpiperidin-4-yl)oxy)-[1,1′-biphenyl]-4-yl)-1H-1,2,3-triazole-4-carboxamide]	390 ± 10	340 ± 20	170 ± 20	350 ± 140	120 ± 100	–	–	–	–	–	–	170 ± 120	270 ± 40	–	–	–

Second part, led by results:

IC50 [1, 8] [nM]	IC50 [2, 9] [nM]	IC50 [3, 9] [nM]	IC50 [6, 9] [nM]	IC50 [7, 9] [nM]	IC50 [1, 11] [nM]	IC50 [2, 12] [nM]	IC50 [3, 12] [nM]	IC50 [6, 12] [nM]	IC50 [7, 12] [nM]	IC50 ([1]; read-out: IC50 against SKBr3 cell line) [nM]	SMILES	IC50 [4, 10] [nM]	IC50 [5, 9] [nM]	IC50 [4, 13] [nM]	IC50 [5, 12] [nM]	IC50 ([4]; read-out: IC50 against MDA1986 cell line) [nM]
–	–	–	–	–	450 ± 30	1220 ± 70	740 ± 220	2370	1840	–	Cc1c(OC2CCN(C)CC2)ccc2cc(NC(=O)c3cn(Cc4ccc(C(C)(C)C)cc4)nn3)c(=O)oc12 [4k, 1-(4-tert-Butylbenzyl)-N-(8-methyl-7-((1-methylpiperidin-4-yl)oxy)-2-oxo-2H-chromen-3-yl)-1H-1,2,3-triazole-4-carboxamide]	–	–	340 ± 90	580 ± 140	–
–	–	–	–	–	380	640	810 ± 230	2490 ± 320	1280 ± 710	–	Cc1c(OC2CCN(C)CC2)ccc2cc(NC(=O)c3cn(Cc4ccc([N+](=O)[O-])cc4)nn3)c(=O)oc12 [4l, 1-(4-Nitrobenzyl)-N-(8-methyl-7-((1-methylpiperidin-4-yl)oxy)-2-oxo-2H-chromen-3-yl)-1H-1,2,3-triazole-4-carboxamide]	–	–	180 ± 220	260 ± 340	–
–	–	–	–	–	1080 ± 50	1380 ± 70	4000 ± 1920	> 100000	> 100000	–	Cc1ccc(-n2cc(C(=O)Nc3cc4ccc(OC5CCN(C)CC5)c(C)c4oc3=O)nn2)cc1 [4e, 1-(4-methylphenyl)-N-(8-methyl-7-((1-methylpiperidin-4-yl)oxy)-2-oxo-2H-chromen-3-yl)-1H-1,2,3-triazole-4-carboxamide]	–	–	290	3640	–
–	–	–	–	–	1060 ± 10	1680 ± 10	1140 ± 1170	6000 ± 1130	3030 ± 50	–	Cc1c(OC2CCN(C)CC2)ccc2cc(NC(=O)c3cn(Cc4cccc(Cl)c4)nn3)c(=O)oc12 [4n, 1-(3-Chlorobenzyl)-N-(8-methyl-7-((1-methylpiperidin-4-yl)oxy)-2-oxo-2H-chromen-3-yl)-1H-1,2,3-triazole-4-carboxamide]	–	–	230 ± 220	190 ± 100	–
–	–	–	–	–	1310 ± 200	1420 ± 140	3400 ± 1270	7850 ± 420	> 100000	–	COc1ccc(Cn2cc(C(=O)Nc3cc4ccc(OC5CCN(C)CC5)c(C)c4oc3=O)nn2)cc1 [4j, 1-(4-Methoxybenzyl)-N-(8-methyl-7-((1-methylpiperidin-4-yl)oxy)-2-oxo-2H-chromen-3-yl)-1H-1,2,3-triazole-4-carboxamide]	–	–	2600 ± 300	6700	–
–	–	–	–	–	730 ± 10	1360 ± 80	2100 ± 600	3800 ± 1420	4960 ± 670	–	Cc1c(OC2CCN(C)CC2)ccc2cc(NC(=O)c3cn(Cc4ccc(Br)cc4)nn3)c(=O)oc12 [4h, 1-(4-Bromobenzyl)-N-(8-methyl-7-((1-methylpiperidin-4-yl)oxy)-2-oxo-2H-chromen-3-yl)-1H-1,2,3-triazole-4-carboxamide]	–	–	2000 ± 500	1600 ± 310	–
–	–	–	–	–	1080 ± 10	1340 ± 190	2600 ± 6120	8820 ± 1140	3310	–	Cc1c(OC2CCN(C)CC2)ccc2cc(NC(=O)c3cn(Cc4ccc(F)cc4)nn3)c(=O)oc12 [4m, 1-(4-Fluorobenzyl)-N-(8-methyl-7-((1-methylpiperidin-4-yl)oxy)-2-oxo-2H-chromen-3-yl)-1H-1,2,3-triazole-4-carboxamide]	–	–	1770 ± 4100	2380 ± 5380	–
–	–	–	–	–	1140 ± 190	1440 ± 310	2200 ± 300	3670 ± 1380	4650 ± 710	–	Cc1c(OC2CCN(C)CC2)ccc2cc(NC(=O)c3cn(Cc4ccc(Cl)cc4)nn3)c(=O)oc12 [4g, 1-(4-Chlorobenzyl)-N-(8-methyl-7-((1-methylpiperidin-4-yl)oxy)-2-oxo-2H-chromen-3-yl)-1H-1,2,3-triazole-4-carboxamide]	–	–	1700 ± 520	1700 ± 200	–
